{"source": "patent US9463188B2", "about": "“Osteopontin production inhibitor containing dictyopyrone derivative or dihydrodictyopyrone derivative as active ingredient” (TOHOKU UNIVERSITY, priority 2013, dated 2016)", "test_system": "human non-small cell lung cancer-derived cell line A549", "assay": "Matrix-Invasion assay (Matrigel)", "assay_type": "cell-based", "method": "As a second test for determining whether or not the physiological function of cells induced by OPN production is suppressed by a test compound, Matrix-Invasion assay was performed. In this assay, cups (inserts) whose bottom was covered with a membrane coated with collagen or laminin (Matrigel, BD Bioscience) as an extracellular matrix component and having φ8 μm pores and a 24-well plate for inserting the inserts were prepared. Cells suspended in a serum-free medium were placed in the inside insert, and a medium containing a substance inducing metastasis and invasion of cells (here, fetal calf serum) was injected into each well of the outside 24-well plate to determine the number of cells passing through the Matrigel-coated membrane of the insert and coming into the outside well.\nSpecifically, a fluorescent dye was introduced into A549 cells invading outside the membrane, and then the cells were separated from the membrane to measure their fluorescence intensity. At the same time, a fluorescent dye was introduced also into a known number of cells for preparing a calibration curve, and a calibration curve was prepared from their fluorescence intensity. Then, the number of invading cells of a test sample containing an unknown number of cells was determined from the fitted curve.\nCancer cells produce OPN by stimulation of fetal calf serum added to the outside medium. However, when OPN is present in the culture liquid, the cells produce Matrix Metalloproteinase (MMP) that is a collagen-degrading enzyme so that Matrigel is dissolved, and in addition, the cells transfer to the outside well due to their improved migration capacity. […]\nCells of a human non-small cell lung cancer-derived cell line A549 were suspended in DMEM medium containing 10% FCS and 1% P/S at 1.8×10^5 cells/mL to obtain a cell suspension. […] This day was counted as Day 0 of operation. […]"}
{"smiles": "CCCCCCCCCCCC(=O)[C@H]1C(=O)O[C@@H](C)C[C@@H]1C", "note": "[Chemical formula 3]", "values": [{"measurement": "total number of invading cells vs control group", "setting": "25 μmol/L, 48±4 hours", "value": "no significant difference"}, {"measurement": "total number of invading cells relative to control group", "setting": "50 μmol/L, 48±4 hours", "value": "about half"}, {"measurement": "suppression of matrix invasion vs control group", "setting": "A549 cells, 50 μmol/L, significance level less than 1%", "value": "significantly suppressed"}]}
